{"source": "patent US9364453B2", "about": "“Method of treating postural reflex abnormality caused by parkinson's disease” (Lundbeck NA Ltd., priority 2011, dated 2016)", "key": {"[1]": {"target": "T1, aromatic amino acid decarboxylase (AADC) (Homo sapiens, UniProt P20711)", "T1 sequence (P20711 1-480)": "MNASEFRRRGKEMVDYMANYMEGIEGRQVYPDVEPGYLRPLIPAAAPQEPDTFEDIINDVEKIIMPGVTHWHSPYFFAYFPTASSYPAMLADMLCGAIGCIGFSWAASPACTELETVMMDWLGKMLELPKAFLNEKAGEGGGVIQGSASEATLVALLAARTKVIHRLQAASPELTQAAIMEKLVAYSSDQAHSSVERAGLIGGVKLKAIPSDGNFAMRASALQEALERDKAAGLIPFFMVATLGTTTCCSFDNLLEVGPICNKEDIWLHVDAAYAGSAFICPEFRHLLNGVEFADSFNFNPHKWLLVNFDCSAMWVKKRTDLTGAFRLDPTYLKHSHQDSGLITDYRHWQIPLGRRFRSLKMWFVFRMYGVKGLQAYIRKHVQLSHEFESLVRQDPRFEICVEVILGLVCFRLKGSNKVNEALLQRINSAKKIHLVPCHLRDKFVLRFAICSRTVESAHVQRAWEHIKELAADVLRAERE", "settings": "as compared to L-DOPA; cited from earlier work"}, "patients with PA disease": {"tested_on": "patients with PA disease", "settings": "cited from earlier work"}, "[2]": {"tested_on": "PA disease patient with pure akinesia and chief complaint of freezing of gait", "assay": "Example 2: treatment of a PA disease patient with pure akinesia and chief complaint of freezing of gait", "assay_type": "in vivo, human", "settings": "person; DOPS 300 mg/day in 3 portions", "protocol": "Treatment effect of therapeutic agent of the present invention for PA disease patient with pure akinesia and chief complaint of freezing of gait A PA disease patient with pure akinesia and chief complaint of freezing of gait: person. a) DOPS (300 mg/day) was administered in 3 portions, but ineffective. b) DOPS (300 mg/day) and Comtan® (300 mg/day) as a COMT inhibitor were simultaneously administered in 3 portions each. […] Combined use of DOPS and Comtan® (COMT inhibitor) was effective even in a treatment without using an L-DOPA preparation and a dopamine receptor stimulator."}, "[3]": {"settings": "as compared to L-DOPA; cited from earlier work"}, "[4]": {"tested_on": "PA disease patient with pure akinesia and chief complaint of freezing of gait, not responsive to L-DOPA preparation", "assay": "Example 3: treatment of a PA disease patient with pure akinesia and freezing of gait, not responsive to L-DOPA preparation", "assay_type": "in vivo, human", "settings": "person, DOPS 600 mg/day in 3 portions", "text": "A combined use of DOPS and a COMT inhibitor was effective for the “freezing of gait symptom” for which L-DOPA preparation is not effective."}}, "data": [{"molecule": "N[C@H](C(=O)O)[C@H](O)c1ccc(O)c(O)c1", "note": "[DOPS, L-threo-3,4-dihydroxy-phenylserine]", "values": [{"measurement": "decarboxylation reaction rate", "setting": "[1]", "value": "low"}, {"measurement": "clinical trial results versus placebo", "setting": "patients with PA disease; double-blind comparison, DOPS in optically active form", "value": "significantly superior to that of placebo"}, {"measurement": "efficacy rate", "setting": "patients with PA disease; in vivo", "value": "not necessarily high"}, {"measurement": "effect on freezing of gait", "setting": "[2]", "value": "ineffective"}, {"measurement": "transferability into the brain", "setting": "[3]", "value": "low"}, {"measurement": "effect on freezing of gait", "setting": "[4]", "value": "slight improvement effect"}]}]}
